Experimental data reported in patent US20250186541A1, “DLL3 TARGETING PEPTIDES AND CONSTRUCTS THEREOF” (MARIANA ONCOLOGY INC., priority 2023, published 2025).
Blank lines part the entries; values can stand above or below the molecule they belong to. Bridge positions count the residues as written; N and C are the ends. Square brackets hold non-standard residues; d marks the D form. Peptide text beside a SMILES is read from it. * marks the point of attachment. DOTA = O=C(O)CN1CCN(CC(=O)O)CCN(CC(=O)*)CCN(CC(=O)O)CC1; Phe(4-CH2NH2) = NCc1ccc(C[C@H](N)C(=O)O)cc1; 1Nal = N[C@@H](Cc1cccc2ccccc12)C(=O)O; 2Nal = N[C@@H](Cc1ccc2ccccc2c1)C(=O)O; Phe(2-Me) = Cc1ccccc1C[C@H](N)C(=O)O; tBuAla = CC(C)(C)C[C@H](N)C(=O)O; αMeD = C[C@](N)(CC(=O)O)C(=O)O; Chg = N[C@H](C(=O)O)C1CCCCC1; αMeP = C[C@@]1(C(=O)O)CCCN1

What was measured:
SHP-77 cells [1] = assay: Internalization of [177Lu]Lu-labeled peptide after glycine acid wash, gamma counter internalized fraction; assay type: cell-based, human; settings: [177Lu]Lu-test peptide, 1 h, 37° C., acid wash 50 mM Glycine pH 2.5
Method: (§1) Example 4. Cell Binding, Internalization, and Radiolabeling of Targeting Moieties Polypeptides General Procedure for Radiolabeling of RPTs with [^177Lu]LuCl3
(§2) [^177Lu]LuCl3 was received from venders in HCl solution. For every mCi of [^177Lu]LUCl3 added to the reaction vial (1.5 mL Eppendorf vial), ammonium acetate buffer (0.2 M, pH 4.9, 100 μL, containing 1% w/v ascorbic acid and 6% v/v ethanol) and peptide conjugate (1 nmol) was added. The pH of the solution was determined to be approximately 5 by using pH strips. The reaction vial was incubated at 80° C., 700 RPM for 17-20 minutes. A sample from the reaction was analyzed by RP-HPLC using an Agilent Infinity II 1260 HPLC to determine reaction completion and radiochemical purity. HPLC conditions: Waters XBridge BEH […] Column, 130 Å, 3.5 um, 4.6 mm×250 mm; mobile phase: Solvent A=water (with 0.1% formic acid), solvent B=acetonitrile (with 0.1% formic acid). Gradients: 25-45% B in 10 minutes, 45-65% B in 12 minutes, 65-90% in 6 minutes at a flow rate of 0.5 mL/min. Required amounts of the product was formulated in 1% PBSA for cell studies.
(§3) The study was conducted using SHP-77cells (Table 7) Adherent cell studies: The cells were cultured in appropriate culture media (20 mL) in tissue culture treated T150 flasks at 37° C. and 5% CO2. Adherent cells were detached (60-70% confluent) using 5 mL Versene at 37° C. for 3 min. After confirming the viability using countess and count of detached cells using Trypan blue, the cells were centrifuged at 4° C. for 5 minutes (1,000 rpm). The cell pellet obtained was washed once with PBS and resuspended in 1% PBSA to obtain the desired cell concentration (5-25 million cells/mL).
as §3, with “Suspension” for “The study was conducted using SHP-77cells (Table 7) Adherent”, “CO2.” for “CO2. Adherent cells were detached (60-70% confluent) using 5 mL Versene at 37° C. for 3 min.”, “viability” for “viability using countess”
(§4) Cell numbers used for the assay were in the range of 5 million cells/condition −25 million cells/condition.
Internalization: The resuspended cells in 300 μl of 1% PBSA and counted in the gamma counter as “bound fraction” were collected in 1.5 ml Eppendorf tube and pelleted. The pelleted cells were incubated with 300 μl of 50 mM Glycine pH=2.5 for 3 minutes and then pelleted discarding the supernatant. This process was repeated one more time. The pelleted cells were washed with 300 μl of cold 1% PBSA and then resuspended in 300 μl 0.3M NaOH. This was counted in the gamma counter as “internalized fraction”.
(§5) SHP-77 cells are human-derived, non-engineered SCLC cells.

human DLL3 = target: T1, human DLL3 (Homo sapiens, UniProt Q9NYJ7); assay: Affinity determination by Surface Plasmon Resonance (SPR), Biacore, 1:1 binding model; settings: biotinylated human DLL3 on streptavidin chip, 25° C.; NB = nonbinding
T1 construct: biotin (biotinylated)
T1 sequence (Q9NYJ7 27-618): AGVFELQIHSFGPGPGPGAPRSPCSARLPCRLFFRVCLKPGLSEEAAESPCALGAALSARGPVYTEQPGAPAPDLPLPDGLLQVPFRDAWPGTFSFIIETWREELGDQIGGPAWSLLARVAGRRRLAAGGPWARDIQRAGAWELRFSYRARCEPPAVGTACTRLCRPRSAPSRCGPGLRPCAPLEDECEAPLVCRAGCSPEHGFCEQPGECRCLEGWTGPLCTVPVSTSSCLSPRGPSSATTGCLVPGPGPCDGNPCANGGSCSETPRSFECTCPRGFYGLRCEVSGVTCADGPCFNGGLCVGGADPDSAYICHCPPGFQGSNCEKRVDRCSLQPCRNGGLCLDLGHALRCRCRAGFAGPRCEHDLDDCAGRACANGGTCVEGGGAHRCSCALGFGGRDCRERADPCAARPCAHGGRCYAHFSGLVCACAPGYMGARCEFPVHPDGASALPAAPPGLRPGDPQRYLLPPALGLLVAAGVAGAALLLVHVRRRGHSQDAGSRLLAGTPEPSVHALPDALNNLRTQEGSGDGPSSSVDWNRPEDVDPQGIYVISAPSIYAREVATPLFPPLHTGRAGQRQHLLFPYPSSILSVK
Method in brief: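 SPR with biotinylated human DLL3 captured on a streptavidin chip, with a reference surface subtracted. Samples were injected at several concentrations at 100 μL/min in phosphate buffer with 137 mM NaCl, 2.7 mM KCl, 0.05% P20 and 2% DMSO. Kinetic and affinity constants came from a 1:1 binding fit.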

SHP-77 cells [2] = assay: Cell binding (total uptake) of [177Lu]Lu-labeled peptide, gamma counter bound fraction; assay type: cell-based, human; settings: [177Lu]Lu-test peptide, 1 h, 37° C., 1% PBSA
Method: as §1, §2, §3
as §3, with “Suspension” for “The study was conducted using SHP-77cells (Table 7) Adherent”, “CO2.” for “CO2. Adherent cells were detached (60-70% confluent) using 5 mL Versene at 37° C. for 3 min.”, “viability” for “viability using countess”
as §4
Total uptake: Cells were incubated with 300 μL (0.8 μCi) of the incubation buffer (containing radiolabeled peptide [^177Lu]Lu-test peptide) for 1 hour at 37 C (Table 8). Post incubation, the cells were pelleted and washed 2 times using cold PBS+1% BSA. The supernatant and washes were combined and counted together as “unbound fraction” in a gamma counter. The cells were then resuspended in 300 μL of 1% PBS+1% BSA and counted in the gamma counter as “bound fraction”.
as §5

Biotinylated human DLL3 = target: T2, Biotinylated human DLL3 (human, UniProt Q9NYJ7 27-492, biotinylated (site not stated)); assay: SPR, biotin-hDLL3 on SA chip
T2 construct: also called Delta-like ligand 3; Delta Like Canonical Notch Ligand 3
T2 sequence (looked up): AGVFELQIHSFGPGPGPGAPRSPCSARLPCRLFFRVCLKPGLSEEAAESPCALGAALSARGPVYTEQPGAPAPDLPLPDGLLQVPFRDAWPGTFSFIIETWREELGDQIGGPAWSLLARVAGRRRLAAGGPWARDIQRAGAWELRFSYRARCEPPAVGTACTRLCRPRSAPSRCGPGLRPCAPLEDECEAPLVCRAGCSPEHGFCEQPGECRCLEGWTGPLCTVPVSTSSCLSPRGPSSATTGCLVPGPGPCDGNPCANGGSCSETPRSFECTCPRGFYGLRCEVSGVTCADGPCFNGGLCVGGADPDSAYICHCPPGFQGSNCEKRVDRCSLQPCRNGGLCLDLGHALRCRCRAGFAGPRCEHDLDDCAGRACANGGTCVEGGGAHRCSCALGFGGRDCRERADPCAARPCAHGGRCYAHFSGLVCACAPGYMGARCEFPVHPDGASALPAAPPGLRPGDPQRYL

Kd (human DLL3): 0.12 nM
Molecule: CC(=O)N[C@H](C)C(=O)N[C@@H](CO)C(=O)N[C@@H](CC(=O)O)C(=O)N[C@H]1CSSC[C@@H](C(=O)N2CCC[C@@]2(C)C(=O)N[C@@H](Cc2ccccc2)C(=O)N[C@@H](CC(=O)O)C(N)=O)NC(=O)[C@H](CC(N)=O)NC(=O)[C@H](Cc2ccc3ccccc3c2)NC(=O)[C@H](Cc2ccc(CNC(=O)CN3CCN(CC(=O)O)CCN(CC(=O)O)CCN(CC(=O)O)CC3)cc2)NC(=O)[C@H](CC(C)(C)C)NC(=O)[C@H](Cc2cccc3ccccc23)NC1=O [Cpd #158, Ac-(D-Ala)-S-D-C(3)-(1Nal)-(t-Bu-Ala)-[PAF(DOTA)]-(2Nal)-N-C(3)-(aMe-P)-F -D-CONH2] (Ac-[dA]SDC[1Nal][tBuAla][Phe(4-CH2NH2)](DOTA)[2Nal]NC[αMeP]FD-NH2; disulfide 4-10)
% Internalization (out of bound fraction) (SHP-77 cells [1]): 63% | % Binding (SHP-77 cells [2]): 25%

Kd (human DLL3): 0.026 nM
Molecule: CC(=O)N[C@H](C)C(=O)N[C@@H](CO)C(=O)N[C@@](C)(CC(=O)O)C(=O)N[C@H]1CSSC[C@@H](C(=O)N2CCC[C@@]2(C)C(=O)N[C@@H](Cc2ccccc2)C(=O)N[C@@H](CC(=O)O)C(=O)N[C@H](CCCCNC(=O)CN2CCN(CC(=O)O)CCN(CC(=O)O)CCN(CC(=O)O)CC2)C(N)=O)NC(=O)[C@H](CC(N)=O)NC(=O)[C@H](Cc2ccc3ccccc3c2)NC(=O)[C@H](CCC(N)=O)NC(=O)[C@H](CC(C)(C)C)NC(=O)[C@H](Cc2cccc3ccccc23)NC1=O [Cpd #168, Ac-(D-Ala)-S-(aMe-Asp)-C(3)-(1Nal)-(t-Bu-Ala)-Q-(2Nal)-N-C(3)-(aMe-P)-F-D-[D-Lys(DOTA)]-NH2] (Ac-[dA]S[αMeD]C[1Nal][tBuAla]Q[2Nal]NC[αMeP]FD[dK](DOTA)-NH2; disulfide 4-10)
% Internalization (out of bound fraction) (SHP-77 cells [1]): 59% | % Binding (SHP-77 cells [2]): 8%

Kd (human DLL3): 0.16 nM
Molecule: CC(=O)N[C@H](C(=O)N[C@@H](CO)C(=O)N[C@@H](CC(=O)O)C(=O)N[C@H]1CSSC[C@@H](C(=O)N2CCC[C@@]2(C)C(=O)N[C@@H](Cc2ccccc2)C(=O)N[C@@H](CC(=O)O)C(=O)N[C@H](CCCCNC(=O)CN2CCN(CC(=O)O)CCN(CC(=O)O)CCN(CC(=O)O)CC2)C(N)=O)NC(=O)[C@H](CC(N)=O)NC(=O)[C@H](Cc2ccc3ccccc3c2)NC(=O)[C@H](CCC(N)=O)NC(=O)[C@H](C2CCCCC2)NC(=O)[C@H](Cc2cccc3ccccc23)NC1=O)C1CCCCC1 [compound 125, Ac-(Chg)-S-D-C(3)-(1Nal)-(Chg)-Q-(2Nal)-N-C(3)-(aMe-P)-F-D-D-Lys(DOTA)-CONH2] (Ac-[Chg]SDC[1Nal][Chg]Q[2Nal]NC[αMeP]FD[dK](DOTA)-NH2; disulfide 4-10)
% Internalization (out of bound fraction) (SHP-77 cells [1]): 51% | % Binding (SHP-77 cells [2]): 17%

Kd (human DLL3): 0.18 nM
Molecule: Cc1ccccc1C[C@H](NC(=O)[C@]1(C)CCCN1C(=O)[C@@H]1CSSC[C@H](NC(=O)[C@H](CC(=O)O)NC(=O)[C@H](CO)NC(=O)[C@@H](C)NC(=O)CN2CCN(CC(=O)O)CCN(CC(=O)O)CCN(CC(=O)O)CC2)C(=O)N[C@@H](Cc2cccc3ccccc23)C(=O)N[C@@H](CC(C)(C)C)C(=O)N[C@@H](CCC(N)=O)C(=O)N[C@@H](Cc2ccc3ccccc3c2)C(=O)N[C@@H](CC(N)=O)C(=O)N1)C(=O)N[C@@H](CC(=O)O)C(N)=O [compound 154, DOTA-(D-Ala)-S-D-C(3)-(1Nal)-(t-Bu-Ala)-Q-(2Nal)-N-C(3)-(aMe-P)-(2Me-F)-D-CONH2] ({DOTA}-[dA]SDC[1Nal][tBuAla]Q[2Nal]NC[αMeP][Phe(2-Me)]D-NH2; disulfide 4-10)
% Internalization (out of bound fraction) (SHP-77 cells [1]): 58% | % Binding (SHP-77 cells [2]): 10%

Kd (human DLL3): 0.049 nM
Molecule: CC(=O)N[C@H](C)C(=O)N[C@@H](CO)C(=O)N[C@@H](CC(=O)O)C(=O)N[C@H]1CSSC[C@@H](C(=O)N2CCC[C@@]2(C)C(=O)N[C@@H](Cc2ccccc2)C(=O)N[C@@H](CC(=O)O)C(=O)N[C@H](CCCCNC(=O)CN2CCN(CC(=O)O)CCN(CC(=O)O)CCN(CC(=O)O)CC2)C(N)=O)NC(=O)[C@H](CC(=O)O)NC(=O)[C@H](Cc2ccc3ccccc3c2)NC(=O)[C@H](C)NC(=O)[C@H](CC(C)(C)C)NC(=O)[C@H](Cc2cccc3ccccc23)NC1=O [compound 166, Ac-(D-Ala)-S-D-C(3)-(1Nal)-(t-Bu-Ala)-Ala-(2Nal)-D-C(3)-(aMe-P)-F-D-[D-Lys(DOTA)]-NH2] (Ac-[dA]SDC[1Nal][tBuAla]A[2Nal]DC[αMeP]FD[dK](DOTA)-NH2; disulfide 4-10)
% Internalization (out of bound fraction) (SHP-77 cells [1]): 58% | % Binding (SHP-77 cells [2]): 7%

binding result (Biotinylated human DLL3): no binding
B1: Cpd #99 (peptide)
peptide: Ac-[Chg]SDCWLQK(DOTA)NCPFD-NH2
modifications: disulfide 4-10
SMILES: CC(=O)N[C@H](C(=O)N[C@@H](CO)C(=O)N[C@@H](CC(=O)O)C(=O)N[C@H]1CSSC[C@@H](C(=O)N2CCC[C@H]2C(=O)N[C@@H](Cc2ccccc2)C(=O)N[C@@H](CC(=O)O)C(N)=O)NC(=O)[C@H](CC(N)=O)NC(=O)[C@H](CCCCNC(=O)CN2CCN(CC(=O)O)CCN(CC(=O)O)CCN(CC(=O)O)CC2)NC(=O)[C@H](CCC(N)=O)NC(=O)[C@H](CC(C)C)NC(=O)[C@H](Cc2c[nH]c3ccccc23)NC1=O)C1CCCCC1
